From US8563550B2, “Imidazolothiadiazoles for use as protein kinase inhibitors” (Centro Nacional de Investigaciones Oncologicas (CNIO), priority 2007, dated 2013)

target: T1, PIM-1 (Homo sapiens, UniProt P11309); test: PIM-1 biochemical assay (ADP Hunter assay kit); details: compound concentration 10 μM; approximate values
T1 construct: histidine tag (C); made in house
Text: The biochemical assay to measure PIM-1 activity relies on the ADP Hunter assay kit (DiscoveRx Corp., Cat. #90-0077), that determines the amount of ADP as direct product of the kinase enzyme activity.
The enzyme has been expressed and purified in-house as a recombinant human protein with a C-terminal histidine tag. The protein is active and stable.
Assay conditions were as indicated by the kit manufacturers with the following adaptations for the kinase activity step: • Kinase assay buffer and assay volume stay as recommended (15 mM HEPES, pH 7.4, 20 mM NaCl, 1 mM EGTA, 0.02% Tween 20, 10 mM MgCl2 and 0.1 mg/ml bovine γ-globulins/75 μl assay volume) • Incubation time and temperature: 60 min at 30° C. • PIM-1 concentration: 50 pg/μl • ATP concentration: 100 μM • PIM-1 substrate peptide: PIMtide (ARKRRRHPSGPPTA) • Peptide concentration: 60 μM • Positive control for kinase activity inhibition: 1-10 μM Staurosporine • DMSO concentration have to stay below 2% during the kinase reaction
Assays were performed in either 96 or 384-well plates. The final outcome of the coupled reactions provided by the kit is the release of the fluorescent product Resorufin and has been measured with a multilabel HTS counter VICTOR V (PerkinElmer) using an excitation filter at 544 nm and an emission filter at 580 nm.

T1 sequence (P11309 whole entry): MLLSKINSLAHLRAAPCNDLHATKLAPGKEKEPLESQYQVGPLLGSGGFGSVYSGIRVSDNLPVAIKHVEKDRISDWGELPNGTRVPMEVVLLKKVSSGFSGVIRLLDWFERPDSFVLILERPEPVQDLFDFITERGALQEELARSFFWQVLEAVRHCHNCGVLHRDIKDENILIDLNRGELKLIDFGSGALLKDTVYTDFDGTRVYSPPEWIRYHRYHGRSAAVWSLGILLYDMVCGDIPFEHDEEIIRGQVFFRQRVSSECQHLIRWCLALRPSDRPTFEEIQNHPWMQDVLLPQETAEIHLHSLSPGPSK

Molecule | Percentage Inhibition of PIM-1 at 10 μM [%]
4-{2-[(Furan-2-ylmethyl)-amino]-imidazo[2,1-b][1,3,4]thiadiazol-5-yl}-phenol [34(40)] | 100
FC(F)(F)Oc1cccc(-c2cnc3sc(NCC4CC4)nn23)c1 [34(39), Cyclopropylmethyl-[5-(3-trifluoromethoxy-phenyl)-imidazo[2,1-b][1,3,4]thia-diazol-2-yl]-amine] | 82

same assay, conditions: compound concentration 10 μM; approximate values; read-out: Percentage Inhibition of PIM-1 at 10 μM

inhibition at 10 µM [%] | Molecule
73 | Fc1ccc(CNc2nn3c(-c4cccnc4)cnc3s2)cc1 [34(57), (4-Fluoro-benzyl)-(5-pyridin-3-yl-imidazo[2,1-b][1,3,4]thiadiazol-2-yl)-amine]
77 | c1ccc2cc(-c3cnc4sc(NCC5CC5)nn34)ccc2c1 [34(10), Cyclopropylmethyl-(5-naphthalen-2-yl-imidazo[2,1-b][1,3,4]thiadiazol-2-yl)-amine]
96 | COCCNc1nn2c(-c3ccc(F)c(Cl)c3)cnc2s1 [34(14), [5-(3-Chloro-4-fluoro-phenyl)-imidazo[2,1-b][1,3,4]thiadiazol-2-yl]-(2-meth-oxyethyl)-amine]
98 | Clc1cccc(-c2cnc3sc(NCCc4ccccn4)nn23)c1 [34(5), [5-(3-Chloro-phenyl)-imidazo[2,1-b][1,3,4]thiadiazol-2-yl]-(2-pyridin-2-yl-ethyl)-amine]
84 | COc1ccc(CNc2nn3c(-c4ccc(F)c(Cl)c4)cnc3s2)cc1 [34(33), [5-(3-Chloro-4-fluoro-phenyl)-imidazo[2,1-b][1,3,4]thiadiazol-2-yl]-(4-meth-oxybenzyl)-amine]
58 | COc1ccc(CNc2nn3c(-c4ccc5ccccc5c4)cnc3s2)cc1 [34(12), (4-Methoxy-benzyl)-(5-naphthalen-2-yl-imidazo[2,1-b][1,3,4]thiadiazol-2-yl)-amine]
71 | c1ccc(OCCNc2nn3c(-c4ccc5ccccc5c4)cnc3s2)cc1 [34(4), (5-Naphthalen-2-yl-imidazo[2,1-b][1,3,4]thiadiazol-2-yl)-(2-phenoxy-ethyl)-amine]
82 | Oc1ccc(-c2cnc3sc(Nc4ccc(F)cc4)nn23)cc1 [Example 18, 4-[2-(4-Fluoro-phenylamino)-imidazo[2,1-b][1,3,4]thiadiazol-5-yl]-phenol]
98 | COCCNc1nn2c(-c3ccc4ccccc4c3)cnc2s1 [34(8), (2-Methoxy-ethyl)-(5-naphthalen-2-yl-imidazo[2,1-b][1,3,4]thiadiazol-2-yl)-amine]
83 | Fc1ccc(-c2cnc3sc(-c4ccccc4)nn23)cc1 [Example 4, 5-(4-Fluorophenyl)-2-phenyl-imidazo[2,1-b][1,3,4]thiadiazole]

More lines, now with the values behind:

Molecule | inhibition at 10 µM [%]
CN(C)c1cccc(-c2cnc3sc(NCC4CCOCC4)nn23)c1 [34(16), [5-(3-Dimethylamino-phenyl)-imidazo[2,1-b][1,3,4]thiadiazol-2-yl]-(tetrahydro-pyran-4-ylmethyl)-amine] | 99
CC(=O)c1cccc(-c2cnc3sc(NCc4cccs4)nn23)c1 [34(22), 1-(3-{2-[(Thiophen-2-ylmethyl)-amino]-imidazo[2,1-b][1,3,4]thiadiazol-5-yl}-phenyl)-ethanone] | 82
CC(=O)c1cccc(-c2cnc3sc(NCCN4CCOCC4)nn23)c1 [34(65), 1-{3-[2-(2-Morpholin-4-yl-ethylamino)-imidazo[2,1-b][1,3,4]thiadiazol-5-yl]-phenyl}-ethanone] | 77
CN(C)c1cccc(-c2cnc3sc(Oc4ccc(F)cc4)nn23)c1 [Example 15, {3-[2-(4-Fluoro-phenoxy)-imidazo[2,1-b][1,3,4]thiadiazol-5-yl]-phenyl}-dimethyl-amine] | 89
CC(C)CNc1nn2c(-c3cccc(N(C)C)c3)cnc2s1 [34(3), [5-(3-Dimethylamino-phenyl)-imidazo[2,1-b][1,3,4]thiadiazol-2-yl]-isobutyl-amine] | 97
Cc1cc(-c2cnc3sc(NCC4CC4)nn23)cc(C)c1O [34(58), 4-[2-(Cyclopropylmethyl-amino)-imidazo[2,1-b][1,3,4]thiadiazol-5-yl]-2,6-dimethylphenol] | 97
